Source: patent publication US20020137929A1, “1 - (3-heterocyclylphenyl) isothiourea, -isourea, -guanidine and -amidine herbicidal agents” (Intellectual Property Department, BASF Aktiengesellschaft, priority 1998, published 2002)

Experiments:
[1] = system: IPOHE (Morningglory, Ivyleaf); assay: Postemergence herbicidal evaluation; assay type: in vivo, Ipomoea hederacea; settings: postemergence
In short: (§1)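 Two-week seedlings sprayed postemergence at 40 psi; formulation: 1:1 acetone/water, 0.5% TWEEN 20; application ≈0.0156–0.500 kg/ha. Greenhouse grow-out, then 0–9 visual scoring at 4–5 weeks.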

[2] = system: GLXMAW (Soybean, Williams); assay: Postemergence herbicidal evaluation; assay type: in vivo, Glycine max, (L.) Merr. cv Williams; settings: postemergence
In short: as §1

[3] = system: ZEAMX (Corn, Field); assay: Postemergence herbicidal evaluation; assay type: in vivo, Zea mays; settings: postemergence
In short: as §1

[4] = system: ABUTH (Velvetleaf); assay: Preemergence herbicidal evaluation; assay type: in vivo, Abutilon theophrasti; settings: preemergence, rated 4-5 weeks after treatment, 0-9 scale
In short: (§2)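 In this greenhouse assay, monocot and dicot seeds are planted in soil and treated prior to emergence with an aqueous acetone spray (about 0.0156-0.500 kg/ha). Plants are assessed visually against control on a 0-9 scale after 4-5 weeks.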

[5] = system: AMBEL (Ragweed, Common); assay: Postemergence herbicidal evaluation; assay type: in vivo, Ambrosia artemisifolia; settings: postemergence
In short: as §1

[6] = system: ECHCG (Barnyardgrass); assay: Preemergence herbicidal evaluation; assay type: in vivo, Echinochloa crus-galli; settings: preemergence, rated 4-5 weeks after treatment, 0-9 scale
In short: as §2

[7] = system: CYPSE (Flatsedge); assay: Preemergence weed control under flooded paddy conditions; assay type: in vivo, Cyperus serotinus; settings: rated 3-4 weeks after treatment
In short: (§3)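 Visual injury scored 0-9 against control three to four weeks post-treatment, greenhouse-grown. Application: acetone/water (50/50) solutions dosed directly into flood water (1.5-3 cm over silt loam, planted top 0.5 cm), roughly 0.0313 to 0.500 kg/ha active ingredient.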

[8] = system: GLXMAW (Soybean, Williams); assay: Preemergence herbicidal evaluation; assay type: in vivo, Glycine max, (L.) Merr. cv Williams; settings: preemergence, rated 4-5 weeks after treatment, 0-9 scale
In short: as §2

[9] = system: GALAP (Galium); assay: Preemergence herbicidal evaluation; assay type: in vivo, Galium aparine; settings: preemergence, rated 4-5 weeks after treatment, 0-9 scale
In short: as §2

[10] = system: ECHORC (Watergrass (Calif.)); assay: Postemergence weed control under flooded paddy conditions; assay type: in vivo, Echinochloa oryzoides; settings: postemergence weeds, rated 3 to 4 weeks after treatment
In short: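 Containers holding 3–5 cm weeds and rice at 1.5–2.5 leaves are flooded to 1.5–3 cm above soil. Compound in 50/50 v/v aqueous/acetone is then added directly to the water, about 0.0313–0.500 kg/ha. Plants are kept in the greenhouse and rated 0–9 visually at 3–4 weeks.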

[11] = system: SAGPY (Arrowhead (Pygmaea)); assay: Preemergence weed control under flooded paddy conditions; assay type: in vivo, Sagittaria pygmaea; settings: rated 3-4 weeks after treatment
In short: as §3

[12] = system: CASOB (Sicklepod); assay: Preemergence herbicidal evaluation; assay type: in vivo, Cassia obtusifolia; settings: preemergence, rated 4-5 weeks after treatment, 0-9 scale
In short: as §2

[13] = system: AMBEL (Ragweed, Common); assay: Preemergence herbicidal evaluation; assay type: in vivo, Ambrosia artemisifolia; settings: preemergence, rated 4-5 weeks after treatment, 0-9 scale
In short: as §2

[14] = system: SETVI (Foxtail, Green); assay: Preemergence herbicidal evaluation; assay type: in vivo, Setaria viridis; settings: preemergence, rated 4-5 weeks after treatment, 0-9 scale
In short: as §2

With `C=CCN1C(=O)C(CC(N)=O)SC1=Nc1cc(-n2c(=O)cc(C(F)(F)F)n(C)c2=O)c(F)cc1Cl` (stereo not drawn) [Compound 99, 3-Allyl-2-{{2-chloro-5-[3,6-dihydro-3-methyl-2,6-dioxo-4-(trifluoromethyl)-1(2H)-pyrimidinyl]-4-fluorophenyl}imino}-4-oxo-5-thiazolidineacetamide] the “herbicidal rating IPOHE” value ([1]; rate 0.0156 kg/ha) was 9.0, the “herbicidal rating IPOHE” value ([1]; rate 0.0313 kg/ha) was 9.0 and the IPOHE herbicidal rating ([1]; rate 0.0625 kg/ha) was 9.0. For the same compound, the IPOHE herbicidal rating ([1]; rate 0.1250 kg/ha) was 9.0, the “herbicidal rating GLXMAW” value ([2]; rate 0.0156 kg/ha) was 6.5 and the “herbicidal rating GLXMAW” value ([2]; rate 0.0313 kg/ha) was 7.5. The GLXMAW herbicidal rating ([2]; rate 0.0625 kg/ha) was 8.0, the GLXMAW herbicidal rating ([2]; rate 0.1250 kg/ha) was 8.0 and the “herbicidal rating ZEAMX” value ([3]; rate 0.0156 kg/ha) was 5.0. The “herbicidal rating ZEAMX” value ([3]; rate 0.0313 kg/ha) was 6.0, the ZEAMX herbicidal rating ([3]; rate 0.0625 kg/ha) was 7.5 and the ZEAMX herbicidal rating ([3]; rate 0.1250 kg/ha) was 8.0. It also gave an ABUTH rating ([4]; 0.0156 kg/ha) of 9.0, an ABUTH rating ([4]; 0.0313 kg/ha) of 9.0 and an ABUTH rating ([4]; 0.0625 kg/ha) of 9.0. The ABUTH rating ([4]; 0.1250 kg/ha) was 9.0, the ABUTH rating ([4]; 0.2500 kg/ha) was 9.0 and the ABUTH rating ([4]; 0.5000 kg/ha) was 9.0. For the same compound, the “herbicidal rating AMBEL” value ([5]; rate 0.0156 kg/ha) was 9.0, the “herbicidal rating AMBEL” value ([5]; rate 0.0313 kg/ha) was 9.0 and the AMBEL herbicidal rating ([5]; rate 0.0625 kg/ha) was 9.0. The AMBEL herbicidal rating ([5]; rate 0.1250 kg/ha) was 9.0, the ECHCG rating ([6]; 0.0156 kg/ha) was 0.0 and the ECHCG rating ([6]; 0.0313 kg/ha) was 0.0. It also gave an ECHCG rating ([6]; 0.0625 kg/ha) of 0.0, an ECHCG rating ([6]; 0.1250 kg/ha) of 1.0 and an ECHCG rating ([6]; 0.2500 kg/ha) of 1.0. The ECHCG rating ([6]; 0.5000 kg/ha) was 7.0, the “CYPSE herbicidal effect rating” value ([7]; 0.0313 kg/ha) was 0.0 and the “CYPSE herbicidal effect rating” value ([7]; 0.0625 kg/ha) was 0.0. For the same compound, the “CYPSE herbicidal effect rating” value ([7]; 0.1250 kg/ha) was 0.0, the “CYPSE herbicidal effect rating” value ([7]; 0.2500 kg/ha) was 0.0 and the “CYPSE herbicidal effect rating” value ([7]; 0.5000 kg/ha) was 0.0. For the same compound, the GLXMAW rating ([8]; 0.0156 kg/ha) was 0.0, the GLXMAW rating ([8]; 0.0313 kg/ha) was 0.0 and the GLXMAW rating ([8]; 0.0625 kg/ha) was 3.0. It also gave a GLXMAW rating ([8]; 0.1250 kg/ha) of 4.0, a GLXMAW rating ([8]; 0.2500 kg/ha) of 7.0 and a GLXMAW rating ([8]; 0.5000 kg/ha) of 7.0. The GALAP rating ([9]; 0.0156 kg/ha) was 0.0, the GALAP rating ([9]; 0.0313 kg/ha) was 0.0 and the GALAP rating ([9]; 0.0625 kg/ha) was 1.0. The GALAP rating ([9]; 0.1250 kg/ha) was 7.0, the GALAP rating ([9]; 0.2500 kg/ha) was 9.0 and the GALAP rating ([9]; 0.5000 kg/ha) was 7.0. The “Herbicidal rating ECHORC” value ([10]; Rate 0.0313 kg/ha) was 0.0, the “Herbicidal rating ECHORC” value ([10]; Rate 0.0625 kg/ha) was 0.0 and the “Herbicidal rating ECHORC” value ([10]; Rate 0.1250 kg/ha) was 0.0. The “Herbicidal rating ECHORC” value ([10]; Rate 0.2500 kg/ha) was 0.0, the “Herbicidal rating ECHORC” value ([10]; Rate 0.5000 kg/ha) was 4.0 and the “SAGPY herbicidal effect rating” value ([11]; 0.0313 kg/ha) was 0.0. The “SAGPY herbicidal effect rating” value ([11]; 0.0625 kg/ha) was 0.0, the “SAGPY herbicidal effect rating” value ([11]; 0.1250 kg/ha) was 3.0 and the “SAGPY herbicidal effect rating” value ([11]; 0.2500 kg/ha) was 4.0. For the same compound, the “SAGPY herbicidal effect rating” value ([11]; 0.5000 kg/ha) was 4.0, the CASOB rating ([12]; 0.0156 kg/ha) was 0.0 and the CASOB rating ([12]; 0.0625 kg/ha) was 1.0. It also gave a CASOB rating ([12]; 0.1250 kg/ha) of 2.0, a CASOB rating ([12]; 0.2500 kg/ha) of 3.0 and a CASOB rating ([12]; 0.5000 kg/ha) of 7.0. For the same compound, the AMBEL rating ([13]; 0.0156 kg/ha) was 0.0, the AMBEL rating ([13]; 0.0313 kg/ha) was 0.0 and the AMBEL rating ([13]; 0.0625 kg/ha) was 4.0. For the same compound, the AMBEL rating ([13]; 0.1250 kg/ha) was 9.0, the AMBEL rating ([13]; 0.2500 kg/ha) was 9.0 and the AMBEL rating ([13]; 0.5000 kg/ha) was 9.0. It also gave an SETVI rating ([14]; 0.0156 kg/ha) of 0.0, an SETVI rating ([14]; 0.0313 kg/ha) of 1.0 and an SETVI rating ([14]; 0.0625 kg/ha) of 1.0. The SETVI rating ([14]; 0.1250 kg/ha) was 6.0, the SETVI rating ([14]; 0.2500 kg/ha) was 7.0 and the SETVI rating ([14]; 0.5000 kg/ha) was 9.0.
`CCS(=O)(=O)NC(=O)CC1SC(=Nc2cc(-n3c(=O)cc(C(F)(F)F)n(C)c3=O)c(F)cc2Cl)N(C)C1=O` (stereo not drawn) [Compound 105, 2-{{2-Chloro-5-[3,6-dihydro-3-methyl-2,6-dioxo-4-(trifluoromethyl)-1(2H)-pyrimidinyl]-4-fluorophenyl}imino}-N-(ethylsulfonyl)-3-methyl-4-oxo-5-thiazolidineacetamide] was tested, and the “herbicidal rating IPOHE” value ([1]; rate 0.0156 kg/ha) was 5.0, the “herbicidal rating IPOHE” value ([1]; rate 0.0313 kg/ha) was 9.0 and the “herbicidal rating IPOHE” value ([1]; rate 0.0625 kg/ha) was 9.0. The “herbicidal rating IPOHE” value ([1]; rate 0.1250 kg/ha) was 9.0, the “herbicidal rating GLXMAW” value ([2]; rate 0.0156 kg/ha) was 3.0 and the “herbicidal rating GLXMAW” value ([2]; rate 0.0313 kg/ha) was 4.5. The “herbicidal rating GLXMAW” value ([2]; rate 0.0625 kg/ha) was 6.5, the “herbicidal rating GLXMAW” value ([2]; rate 0.1250 kg/ha) was 7.5 and the “herbicidal rating ZEAMX” value ([3]; rate 0.0156 kg/ha) was 3.5. For the same compound, the “herbicidal rating ZEAMX” value ([3]; rate 0.0313 kg/ha) was 5.0, the “herbicidal rating ZEAMX” value ([3]; rate 0.0625 kg/ha) was 6.0 and the “herbicidal rating ZEAMX” value ([3]; rate 0.1250 kg/ha) was 7.0. It also gave an ABUTH rating ([4]; 0.1250 kg/ha) of 7.0, an ABUTH rating ([4]; 0.2500 kg/ha) of 9.0 and an ABUTH rating ([4]; 0.5000 kg/ha) of 9.0. The “herbicidal rating AMBEL” value ([5]; rate 0.0156 kg/ha) was 0.0, the “herbicidal rating AMBEL” value ([5]; rate 0.0313 kg/ha) was 0.0 and the “herbicidal rating AMBEL” value ([5]; rate 0.0625 kg/ha) was 3.0. For the same compound, the “herbicidal rating AMBEL” value ([5]; rate 0.1250 kg/ha) was 9.0, the ECHCG rating ([6]; 0.1250 kg/ha) was 0.0 and the ECHCG rating ([6]; 0.2500 kg/ha) was 0.0. The ECHCG rating ([6]; 0.5000 kg/ha) was 1.0, the “CYPSE herbicidal effect rating” value ([7]; 0.0313 kg/ha) was 2.0 and the “CYPSE herbicidal effect rating” value ([7]; 0.0625 kg/ha) was 5.0. The “CYPSE herbicidal effect rating” value ([7]; 0.1250 kg/ha) was 7.0, the “CYPSE herbicidal effect rating” value ([7]; 0.2500 kg/ha) was 9.0 and the GLXMAW rating ([8]; 0.1250 kg/ha) was 0.0. It also gave a GLXMAW rating ([8]; 0.2500 kg/ha) of 0.0, a GLXMAW rating ([8]; 0.5000 kg/ha) of 0.0 and a GALAP rating ([9]; 0.2500 kg/ha) of 3.0. For the same compound, the GALAP rating ([9]; 0.5000 kg/ha) was 7.0, the “Herbicidal rating ECHORC” value ([10]; Rate 0.0313 kg/ha) was 0.0 and the “Herbicidal rating ECHORC” value ([10]; Rate 0.0625 kg/ha) was 3.0. The “Herbicidal rating ECHORC” value ([10]; Rate 0.1250 kg/ha) was 4.0, the “Herbicidal rating ECHORC” value ([10]; Rate 0.2500 kg/ha) was 5.0 and the “SAGPY herbicidal effect rating” value ([11]; 0.0313 kg/ha) was 3.0. For the same compound, the “SAGPY herbicidal effect rating” value ([11]; 0.0625 kg/ha) was 5.0, the “SAGPY herbicidal effect rating” value ([11]; 0.1250 kg/ha) was 5.0 and the “SAGPY herbicidal effect rating” value ([11]; 0.2500 kg/ha) was 7.0. It also gave a CASOB rating ([12]; 0.1250 kg/ha) of 0.0, a CASOB rating ([12]; 0.2500 kg/ha) of 0.0 and a CASOB rating ([12]; 0.5000 kg/ha) of 0.0. For the same compound, the AMBEL rating ([13]; 0.1250 kg/ha) was 1.0, the AMBEL rating ([13]; 0.2500 kg/ha) was 3.0 and the AMBEL rating ([13]; 0.5000 kg/ha) was 4.0. For the same compound, the SETVI rating ([14]; 0.1250 kg/ha) was 0.0, the SETVI rating ([14]; 0.2500 kg/ha) was 3.0 and the SETVI rating ([14]; 0.5000 kg/ha) was 3.0.
